Measured values taken from patent publication US20190248834A1, “ENDOMORPHIN-2, TETRAPEPTIDE DERIVATIVES THEREOF, AND USES THEREOF” (priority 2016, published 2019).
Non-standard residues stand in square brackets, D forms with d. pGlu = O=C1CC[C@@H](C(=O)O)N1

Key:
Format in all cases: in vivo, human
[1] = test system: very severe headaches with nausea and vomiting; test: Example 24: analgesic effect on severe headaches, topical
Description: A subject had very severe headaches and associated nausea and vomiting, which occurred 1-2 times weekly. […] Over this interval, the frequency of headaches decreased to every 7-10 days, and the intensity of pain at the onset of each episode was diminished.

[2] = test system: dental pain after filling; test: Example 27: analgesic effect on dental pain, applied to tooth and gum
Description: A subject, experienced substantial pain in an upper left retro-molar that started 3 hours after having a dental filling procedure done on the tooth. The pain became more intense over the ensuing hours, at which time they applied to the tooth and gum using a cotton tipped applicator a composition containing 1% (w/v) of N-Ac-Tyr-Pro-Phe-Phe-NH2 (SEQ ID NO: 23) in WEP442. […] Re-application of the composition provided the same relief for the same duration.

[3] = test system: finger pain following trauma; test: Example 31: analgesic effect on painful inflammation following trauma, topical; conditions: 1% (w/v) in WEP442, topical
Description: A subject, experienced sharp pain in their right index finger while trying to loosen a screw-on lid of a fruit jar with their right hand. After about 10 minutes, the pain became throbbing in nature and very intense. The proximal interphalangeal became swollen and discolored (black and blue) from subcutaneous hemorrhage. […] Discoloration of the joint faded over the next several days.

psoriatic knee pain = test: Example 66: analgesic effect on psoriatic knee pain, topical; conditions: 0.5% (w/v) in WEP442, topical
Description: A person with plaque psoriasis of the scalp, elbows and knees for about 10 years had pain in their knees for the past 4-5 years. The knee pain had gradually worsened. […] After hiking for several hours, the knee pain sometimes re-occurred, but it was immediately relieved by topical application of the above solution composition.

[4] = test system: disabling pain in hands and fingers after exertion; test: Example 25: analgesic effect on severe muscle soreness, topical; conditions: 1% (w/v) in WEP442, topical
Description: A subject had disabling pain in their hands and fingers the next morning after a day of intense exertion of the hands and fingers from using hand screw drivers over a 12-hour period during a building construction job. The intensity of pain was so great that they were unable to lace up their work boots.

[5] = test system: back neck pain after cervical implant; test: Example 90: analgesic effect on post-surgery pain and discomfort, topical; conditions: 1% (w/v) in WEP442, topical
Description: A subject had painful discomfort of their back neck for 2 years caused by a surgical titanium implant of the 7th cervical vertebra 2 years earlier. During the past years, the pain and discomfort had been improved from occasional treatments with acupuncture and massage therapy. However, such treatments provided only short term relief of pain and discomfort, usually one or two pain free days after each treatment.
On one afternoon, pain and discomfort suddenly developed. The subject topically applied a composition containing 1% (w/v) of N-Ac-Tyr-Pro-Phe-Phe-NH2 (SEQ ID NO: 23) in WEP442 solution to skin of their back neck area. […] The subject was free of pain and discomfort for at least 12 hours (4+ effect).

TMJ syndrome pain = test: Example 41: analgesic effect on TMJ pain, topical; conditions: 0.5% (w/v) in WEP442, topical
Description: The same subject, also suffered pain from TMJ syndrome involving the left side joint for about 6 years. Attempts to alleviate the pain, e.g. cushioning mouth pieces worn during the night, failed. […] Increasing longer periods of relief have occurred over 5-6 weeks. They have reported that there was no more pain in the affected joint over a period of about one month.

headache = test: Example 44: analgesic effect on headache, topical
Description: A subject, experienced a headache that began on the right temporofrontal area. Within about a half hour the headache pain area expanded to include the left temporofrontal area and both orbital areas. The intensity of pain increased simultaneously to a degree that caused them to remove themself from their sedentary occupation. Available to them was a composition containing 1% (w/v) of N-Pg-Tyr-Pro-Phe-Phe-NH2 (SEQ ID NO: 44) in WEP442, which they topically applied to all the above areas, keeping their eyes closed until the lids dried. Pain relief was detected after about 5 minutes, at which time a second application of the solution was made. Within another 5 minutes, pain relief was substantial, allowing them to return to their occupation.

[6] = test system: very severe osteoarthritis of the knees; test: Example 45: analgesic effect on osteoarthritic knees, topical lotion; conditions: 1% (w/w) lotion
Description: One gram of the tetrapeptide derivative N-Pg-Tyr-Pro-Phe-Phe-NH2(SEQ ID NO: 44) was dissolved in propylene glycol (33 ml) and diisopropyl adipate (33 ml), and the resultant solution was mixed with an oil-in-water emulsion (33 g) to yield a light lotion containing 1% (w/w) of […] (SEQ ID NO: 44). This lotion was generously applied topically to the knees and lower legs of a subject, having very severe osteoarthritis of the knees for many years. After topical application of the lotion to the lower legs and knees, plastic film was applied to cover the treated areas. The plastic film was removed 8 hours later. […] Pain began to return after about 4 days.

stress induced headache = test: Example 51: analgesic effect on stress induced headache, topical
Description: The onset of the headache was associated with emotional stress. Within two hours, the intensity of the headache became almost disabling, whereupon […] applied a solution composition containing 1% (w/v) N-Pg-Ty-Pro-Phe-Phe-NH2 (SEQ ID NO: 44) in WEP442 to the entire frontal and upper facial areas. […] At that time, the solution was generously applied a second time. […] The analgesic effect was judged to be 100%.

severe headache = test: Example 59: analgesic effect on headache of acupuncturist, topical; conditions: 0.6% (w/v) in WEP442, topical
Description: A person acupuncturist, on a day while practicing their specialty, developed a severe headache that was not relieved by administering acupuncture procedures themself.

knee pain and foot pain = test: Example 71: analgesic effect on foot sprain and knee pain following patella fracture, topical; conditions: 0.5% (w/v) in WEP442, topical
Description: A subject suffered severe pain in their left knee and in the arch of their left foot following a forward fall to a wooden floor. Diagnoses of multiple fractures of the patella and a bruised foot were made by x-ray. Surgical repair of the knee was done, following which severe knee pain and acute pain in the arch of the foot persisted. […] Topical applications 3-4 times daily allowed the subject to pursue rehabilitation procedures pain free.

Molecule: CC(=O)N[C@@H](Cc1ccc(O)cc1)C(=O)N1CCC[C@H]1C(=O)N[C@@H](Cc1ccccc1)C(=O)N[C@@H](Cc1ccccc1)C(N)=O [N-Ac-Tyr-Pro-Phe-Phe-NH2]
- frequency of headaches (interval between headaches) ([1]; 1% (w/v) in WEP442, repeated uses over 3 months, before: 1-2 times weekly): 7 to 10 days
- time to pain relief ([1]; 1% (w/v) in WEP442, topical): 3 to 4 min
- pain relief ([1]; 1% (w/v) in WEP442, topical at onset of symptoms): completely relieve pain and any associated symptoms
- duration of pain relief ([2]; 1% (w/v) in WEP442): about 3 hours
- time to pain relief ([2]; 1% (w/v) in WEP442): ≤ 1 min
- pain relief ([2]; 1% (w/v) in WEP442, applied to tooth and gum): pain ceased completely
- pain relief [3]: instantaneous total relief of pain
- recurrence [3]: No pain returned
- duration of pain relief (psoriatic knee pain): about 6 hours
- pain relief (psoriatic knee pain): relieved their knee pain
- recurrence [4]: did not recur at all
- pain relief ([4]; hand-wash manner): instantaneous, complete relief of pain
- analgesic effect grade [5]: 4+ (4+ (90-100%): complete relief or eradication of pain for more than 4 hours)
- duration free of pain and discomfort [5]: at least 12 hours
- pain relief [5]: the pain and discomfort disappeared
- time to pain relief [5]: about 5 minutes
- duration of pain relief (TMJ syndrome pain): more than 8 hours
- pain relief (TMJ syndrome pain): rapidly and completely alleviated pain

Molecule: N-Pg-Tyr-Pro-Phe-Phe-NH2 ([pGlu]YPFF-NH2; SMILES NC(=O)[C@H](Cc1ccccc1)NC(=O)[C@H](Cc1ccccc1)NC(=O)[C@@H]1CCCN1C(=O)[C@H](Cc1ccc(O)cc1)NC(=O)[C@@H]1CCC(=O)N1)
- pain relief (headache; 1% (w/v) in WEP442, after second application): Total relief of pain
- time to detected pain relief (headache; 1% (w/v) in WEP442, first topical application): about 5 minutes
- recurrence (headache; 1% (w/v) in WEP442, topical): no recurrence of pain
- time to return of pain [6]: about 4 days
- pain relief ([6]; under plastic film 8 hours, daily for 3 days): pain had subsided almost completely
- headache intensity (stress induced headache; 1% (w/v) in WEP442, first application, within about 5 minutes): diminished in intensity
- pain relief (stress induced headache; 1% (w/v) in WEP442, second application, within another 5 minutes): free of all headache pain
- analgesic effect (stress induced headache; 1% (w/v) in WEP442, topical): 100%
- time without return of pain (stress induced headache; 1% (w/v) in WEP442, topical): ≥ 24 h
- pain relief (severe headache): completely relieved their headache
- time to pain relief (severe headache): ≤ 2 min
- duration of pain relief (knee pain and foot pain): more than 6 hours
- pain relief (knee pain and foot pain): immediate and complete relief of knee pain and foot pain
